Measurements reported in patent US5670520A, “Method for inhibiting virus replication in mammalian cells using carbostyil derivatives” (Otsuka Pharmaceutical Co., Ltd., priority 1996, dated 1997).
Converted amounts (≈) assume the structure as drawn.

What was measured:
Akata cells = experiment: dNTP pools in Akata cells (enzymatic method); conditions: 100 μg/ml vesnarinone
Description: After a 10 min incubation on ice, the supernatant containing dNTPs was removed, frozen and evaporated with a rotary evaporator. The residue was dissolved in 100 μl of H2 O, and a 10 μl aliquot of this solution was used for the measurement of dNTP pool.
More specifically, 10 μl of the sample or a dNTP standard solution was mixed with 40 μl of the reaction buffer comprising 62.5 mMTris-HCl (pH 7.8), 0.625 mM DTT, 0.125 mg/ml calf thymus DNA (Sigma), 0.625 mg/ml BSA, 10 mM MgCl2, 6.25 μM three dNTPs, and 5.0 μCi/ml [^3 H]dATP (ICN, Costa Mesa, Calif.), for measurement of dTTP, dCTP, and dGTP, or [^3 H]dTTP (ICN), for measurement of dATP. The reaction solution was then mixed with 1.0 unit of E. coli DNA polymerase I (Boehringer Mannheim), and incubated for 40 min at 37° C. After completion of the reaction, the mixture was applied to Whatman DE-81 paper filters and radioactivity was determined using a liquid scintillation counter after three washes with 0.35M Na2 HPO4 (pH 7.5). Amounts of dNTP in the samples were calculated according to the calibration curves estimated by a set of standard dNTP samples.
In parallel, to measurement of the content of dNTPs in the untreated Akata cells after release, the dNTP pool in anti-IgG treated Akata cells was also measured in the same manner.

EBV = experiment: Productive replication of EBV in growing Akata cells (in situ hybridization); assay type: cell-based, Epstein-Barr virus; conditions: for positivity for EBV DNA: 20 μg/ml vesnarinone
Description: 1 hr later, anti-IgG was added to the cultures at a final concentration of 50 μg/ml, and the cells were harvested for in situ hybridization of EBV DNA 24 hrs later as described above.

E. coli DNA polymerase I = target: T1, E. coli DNA polymerase I (Escherichia coli, UniProt P00582); experiment: In vitro DNA polymerase assay; assay type: biochemical; conditions: vesnarinone up to 100 μg/ml
T1 construct: purchased Boehringer Mannheim
T1 sequence (P00582 whole entry): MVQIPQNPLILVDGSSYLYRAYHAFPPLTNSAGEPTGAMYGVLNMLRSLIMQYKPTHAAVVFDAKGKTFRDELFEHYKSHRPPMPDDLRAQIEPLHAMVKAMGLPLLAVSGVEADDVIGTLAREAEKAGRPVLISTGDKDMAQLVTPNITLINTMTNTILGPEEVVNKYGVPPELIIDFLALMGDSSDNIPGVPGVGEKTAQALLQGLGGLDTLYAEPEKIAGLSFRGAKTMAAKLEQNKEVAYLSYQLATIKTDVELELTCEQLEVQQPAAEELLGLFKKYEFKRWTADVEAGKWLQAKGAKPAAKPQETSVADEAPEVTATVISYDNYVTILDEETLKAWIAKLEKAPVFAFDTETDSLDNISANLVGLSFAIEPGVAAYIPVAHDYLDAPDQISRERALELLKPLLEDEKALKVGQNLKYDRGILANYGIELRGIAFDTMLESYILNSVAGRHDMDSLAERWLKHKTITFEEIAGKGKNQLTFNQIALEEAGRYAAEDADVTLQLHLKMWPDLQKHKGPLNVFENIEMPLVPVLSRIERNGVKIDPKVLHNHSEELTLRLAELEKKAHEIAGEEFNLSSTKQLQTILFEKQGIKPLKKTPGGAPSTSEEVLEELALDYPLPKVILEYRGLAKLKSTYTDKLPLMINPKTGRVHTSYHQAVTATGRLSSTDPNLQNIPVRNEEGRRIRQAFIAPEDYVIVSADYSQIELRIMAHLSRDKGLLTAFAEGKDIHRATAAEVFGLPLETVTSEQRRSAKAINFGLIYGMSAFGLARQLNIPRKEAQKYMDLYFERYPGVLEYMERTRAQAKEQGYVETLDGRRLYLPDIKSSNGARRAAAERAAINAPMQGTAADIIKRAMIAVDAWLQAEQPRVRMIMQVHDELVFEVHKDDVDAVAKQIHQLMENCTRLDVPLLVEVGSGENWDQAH

MRC5 cells = experiment: Microscopic evaluation of cytotoxicity in MRC5 cells; assay type: cell-based; conditions: vesnarinone up to 31 μg/ml, alone or with DHPG
ZEBRA, R, EA-R, EA-D = experiment: Western immunoblot of EBV early antigens in Akata cells; assay type: cell-based, Epstein-Barr virus; conditions: 30 μg/ml vesnarinone
Description: 1 hr after release and transfer, the above-described anti-IgG antibody was added at a concentration of 50 μg/ml. 3 hrs and 20 hrs after treatment with the anti-IgG, the cells were harvested for the detection of EBV early antigens ZEBRA (BZLF1 product) by Western immunoblot.
More specifically, cells were washed with PBS, and then lysed at 4° C. in a buffer comprising 25 mM Tris-HCl (pH 7.4), 50 mM NaCl, 0.5% (w/v) sodium deoxycholate, 2.0% (v/v) Nonidet P-40, 0.2% (w/v) SDS, 1.0 mM phenyl-methane sulfonyl fluoride (PMSF), 10 μg/ml aprotinin, 10 μM leupeptin, and 100 μM sodium orthovanadate. After centrifugation, lysates were prepared for electrophoresis as described by Laemmli, Nature, 227:680-685 (1970). An amount of lysate equivalent to 4.0×10^5 cells was used for each immunoblot analysis.
After electrophoretic transfer of proteins to nitrocellulose filters and blocking the filters with 20 mM Tris-HCl (pH 8.0), 125 mM NaCl, 0.1% (v/v) Tween-20, 2.0% (w/v) BSA, and 0.1% (w/v) sodium azide, the filters were incubated with the appropriate primary antibody. For detection of ZEBRA (EB1, BZLF1 gene product), the antibody used was mouse monoclonal anti-EB1 (Z-125); for the detection of R (BRLF1 product), the antibody used was the mouse monoclonal anti-R (R5A9, provided by Dr. Evelyn Manet); for the detection of EA-R (BHRF1 product), monoclonal anti-EA-R (5B11, provided by Dr. Elliott Kieff) (Pearson et al, Virol., 160:151-161 (1987); and Henderson et al, Proc. Natl. Acad. Sci. USA, 90:8479-8483 (1993)), and for the detection of EA-D (BMRF1 product), the antibody used with the mouse monoclonal anti-EA-D (NEA-9240, DuPont, Boston, Mass. (Pearson et al, J. Virol., 47:193-201 (1983); and Kiehl et al, Virol., 184:330-340 (1991))).
Specific reactive bands were detected using anti-mouse secondary antibodies conjugated to alkaline phosphatase (Promega, Madison, Wis.) or horseradish peroxidase (Amersham) or ECL chemiluminescence (Amersham). That is, for detection of ZEBRA and R, alkaline phosphatase was used. For detection of EA-R and EA-D, horseradish peroxidase and the ECL chemiluminescence method was used (Amersham). Development was by the conventional methods, employing the colorogenic substrates bromochloroindolyl phosphate and nitroblue tetrazolium for alkaline phosphatase. The expression of ZEBRA reached a plateau level 3 hrs after stimulation and productive replication of EBV ceased 12 hrs after stimulation in this system.

CMV strain AD169 = experiment: CMV plaque reduction assay in MRC5 cells; assay type: cell-based; conditions: Human betaherpesvirus 5, AD169, MRC5, 168 h
Description: More specifically, subconfluent monolayers of MRC5 cells (Biowhittaker, Walkersville, Md.) in 12-well tissue culture plates were exposed to a suspension of a 1:500 dilution of stock virus (CMV strain AD169; ATCC No. VR-538) in Eagles Minimal Essential Medium (MEM) supplemented with 2.0% (v/v) fetal bovine serum, for 2 hr at 37° C. to allow for virus absorption. The fluid containing unabsorbed virus was then removed, and the cell layer rinsed with Eagles MEM without serum.
The minimum compound concentration that reduces plaque production by 50% (MIC50) was calculated from single compound assays by using a regression analysis program for semilog curve fitting.
The following formula of additivity, which is appropriate for inhibitors affecting different sites, was used.

With `COc1ccc(C(=O)N2CCN(c3ccc4c(c3)CCC(=O)N4)CC2)cc1OC` [vesnarinone, 3,4-dihydro-6-[4-(3,4-dimethoxybenzoyl)-1-piperazinyl]-2(1H)-quinoline] the “cellular content of dATP and dGTP” value (Akata cells; 13 hrs after DMSO release, without anti-IgG) was “displayed progressive reductions 13 hrs after release in the presence of vesnarinone”, the “level of dTTP in anti-IgG treated cells” value (Akata cells; 20 hrs after anti-IgG) was “partially suppressed in the presence of vesnarinone” and the “cellular content of dCTP” value (Akata cells; after DMSO release) was “remained low in the presence or absence of vesnarinone”. The “cellular content of dTTP” value (Akata cells; after DMSO release, without anti-IgG) was “the levels of dTTP remained quite low”, the EBV production (EBV; 20 μg/ml vesnarinone only concurrently with anti-IgG treatment) was “displayed a more profound reduction of EBV production” and the “positivity for EBV DNA” value (EBV; pre-treatment alone (7 days)) was “the degree of positivity for EBV DNA was higher”. For the same compound, the “positivity for EBV DNA” value (EBV; pre-treatment+post-treatment or solely post-treatment) was “reduced the level of positivity for EBV DNA compared to untreated cells”, the “effect on in vitro DNA polymerase assay” value (E. coli DNA polymerase I) was “has no effect on the measurement of dNTP contents in this in vitro DNA polymerase assay” and the “cytotoxicity by microscopic evaluation” value (MRC5 cells) was “No cytotoxicity was observed”. For the same compound, the “expression of ZEBRA (BZLF1)” value (ZEBRA, R, EA-R, EA-D; 3 hrs after anti-IgG) was “suppressed 3 hrs after stimulation with anti-IgG to a limited extent”, the “expression of EA-R (BHRF1)” value (ZEBRA, R, EA-R, EA-D; 3 hrs and 20 hrs) was “expressed to the same degree 3 hrs and 20 hrs after stimulation” and the “expression of R (BRLF1)” value (ZEBRA, R, EA-R, EA-D; 3 hrs and 20 hrs) was “expressed virtually at the same level in the presence or absence of vesnarinone”. For the same compound, the “expression of EA-D (BMRF1)” value (ZEBRA, R, EA-R, EA-D; 20 hrs after stimulation) was “dramatically suppressed in the presence of vesnarinone”, the inhibition at 30 µg/mL (CMV strain AD169; read-out: efficacy against CMV plaque formation) was 91.5% and the EC50 (CMV strain AD169; single compound assay, regression analysis, read-out: MIC50 (minimum concentration that reduces plaque production by 50%)) was 24 µg/mL (≈ 60.7 µM).
